Active and inactive are the calls of the source. Where only a bound is given, the exact number is not on record here.

By AC50 is commonly meant the concentration giving half of the maximal activity seen. The IC50 is the concentration that gives 50% inhibition. For orientation: EC50 means the concentration needed to bring the measured effect to its halfway point. The CC50 is the concentration at which the toxic effect on the cells reaches its halfway point.

The subject of experiment [1] is A549. Put plainly: A549 cell toxicity, dose response, cytotoxicity control, plate reader, cherry-pick samples (AID 687028). The format is functional, cell-based. Conditions: Homo sapiens.
Experiment [2] has as its target Paired box protein Pax-8 (Homo sapiens, UniProt Q06710). Put plainly: inhibitors of PAX8-driven TPO luciferase reporter, dose response, RMG-I cells, cherry-pick (AID 687027).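 Also: luciferase reporter driven by Pax8 target thyroperoxidase promoter measured by SteadyGlo luminescence.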 It counts as functional, cell-based. A general note: In a reporter assay the amount or activity of a reporter protein is the signal.
The nature of experiment [3]: A2780 ovarian cancer cell cytotoxicity, dose response, cytotoxicity control, plate reader, dry powder samples (AID 743046). The format is functional, cell-based.
A short description of experiment [4]: inhibitors of CMV-promoter luciferase reporter, dose response, counter-screen for Pax8 inhibitor project, cell-based, HEK293, luminescence, dry powder (AID 743020). It counts as functional.
Experiment [5] in a line: NIH:OVCAR-3 ovarian cancer cell cytotoxicity, dose response, PAX8 inhibitor project, plate reader, dry powder samples (AID 743044). It counts as functional, cell-based.
Experiment [6] is described as follows: IGROV1 ovarian cancer cell cytotoxicity, dose response, PAX8 inhibitor project, plate reader, dry powder samples (AID 743043). It counts as functional, cell-based. Conditions: IGROV-1.
A short description of experiment [7]: cytotoxicity in OVCAR8 ovarian cancer cells, dose response, PAX8 project, cell-based, plate reader, dry powder samples (AID 743197). It counts as functional. Conditions: OVCAR-8.
Experiment [8] addresses T1, Scavenger receptor class B member 1 (Mus musculus, UniProt Q61009).
T1 sequence (Q61009 whole entry): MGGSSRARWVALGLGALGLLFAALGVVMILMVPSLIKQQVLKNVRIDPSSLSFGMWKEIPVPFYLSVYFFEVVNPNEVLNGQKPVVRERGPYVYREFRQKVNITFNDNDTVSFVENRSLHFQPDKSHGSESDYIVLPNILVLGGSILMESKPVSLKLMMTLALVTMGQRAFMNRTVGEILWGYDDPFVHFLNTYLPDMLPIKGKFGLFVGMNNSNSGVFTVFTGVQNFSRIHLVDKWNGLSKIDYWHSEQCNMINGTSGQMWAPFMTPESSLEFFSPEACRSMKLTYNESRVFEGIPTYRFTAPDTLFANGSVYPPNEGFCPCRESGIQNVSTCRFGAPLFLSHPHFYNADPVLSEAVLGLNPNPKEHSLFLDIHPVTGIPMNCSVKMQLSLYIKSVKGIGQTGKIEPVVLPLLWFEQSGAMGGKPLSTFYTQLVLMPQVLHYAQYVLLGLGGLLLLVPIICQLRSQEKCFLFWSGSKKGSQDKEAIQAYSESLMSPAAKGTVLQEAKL
Kind of experiment: inhibitors of SR-BI dependent HDL uptake, dose response, ldlA[mSR-BI] CHO cells, fluorescence plate reader, dry powder, set 9 (AID 623880). The format is functional, cell-based.

The nature of experiment [9]: cytotoxicity in ldlA[mSR-BI] CHO cells, dose response, cytotoxicity control for SR-BI HDL uptake inhibitor project, cell-based, CellTiter-Glo, 24 h, powder samples, set 7 (AID 624026). It counts as functional. For orientation: Cellular ATP, detected with luciferase, serves as a proxy for viable cell number.
For experiment [10], the target named is T1, Scavenger receptor class B member 1. Put plainly: inhibitors of SR-BI-mediated HDL uptake, dose response, cell-based, ldlA[mSR-BI] CHO, DiI fluorescence, dry powder, set 10 (AID 624029). It counts as functional.
Experiment [11] in a line: cytotoxicity in HeLa cells, dose response, cytotoxicity control, cell-based, plate reader, dry powder (AID 651946). It counts as functional.
The nature of experiment [12]: HEK293T cytotoxicity, dose response, cytotoxicity control for miR-122 modulator project, cell-based, inhibitor set, cherry-pick, set 2 (AID 720697). The format is functional.
The target of experiment [13] is Protein Wnt-3a (Mus musculus, UniProt P27467). Put plainly: SAR analysis of small molecule antagonists of Gli-SUFU in a Wnt3a luminescent reporter assay. It counts as functional.
Experiment [14] can be described thus: insulin promoter down-regulators in MIN6 cells, imaging, high-content screening, mouse beta cells (AID 1628). It counts as functional.
The test system of experiment [15] is Streptococcus sp. 'group A'. Put plainly: growth inhibition of control SK(-) GAS strain, dose response, counter-screen for streptokinase expression inhibitor project, luminescence, kanamycin, BacTiterGlo, confirmation (AID 1900). It counts as functional, organism-based.
The subject of experiment [16] is BJ. Put plainly: cytotoxicity toward BJ-TERT fibroblasts, dose response, cell-based, RAS-independent, luminescence (AID 1933). It counts as functional. Conditions: Homo sapiens.
A short description of experiment [17]: cytotoxicity in MIN6 insulinoma cells, dose response, cytotoxicity control, cell-based, mouse insulinoma (AID 2122).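 Also: confirmatory high-throughput counterscreen run to flag cytotoxic compounds; mouse MIN-6 beta cells carrying an insulin promoter eGFP reporter.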 The format is functional.
In experiment [18] the test system is Vero. Kind of experiment: host cell cytotoxicity of antiviral hits, dose response, cytotoxicity control for West Nile virus antiviral project, secondary assay (AID 1650). It counts as functional. Conditions: Chlorocebus sabaeus.
Experiment [19] deals with BJ. Kind of experiment: cells. It counts as functional, cell-based. Conditions: Homo sapiens.
For experiment [20], the system named is BJ. Kind of experiment: cytotoxicity toward BJ-TERT-LT-ST fibroblasts, dose response, cell-based, RAS-independent, luminescence (AID 1935).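 Also: BJ fibroblasts immortalized with TERT plus LT and ST oncogenes.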 It counts as functional. Particulars: Homo sapiens.
A short description of experiment [21]: cytotoxicity toward DRD oncogenic fibroblasts, dose response, cell-based, non-viral oncogenic, luminescence (AID 1934). The format is functional. Particulars: Homo sapiens.
The test system of experiment [22] is Streptococcus. Kind of experiment: Group A Streptococcus viability loss, dose response, counter-screen for streptokinase expression inhibitor project, luminescence, BacTiterGlo (AID 1915).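 Also: potency for reduction of bacterial viability or growth.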 The format is functional, organism-based. (The purpose of a counterscreen is to sort out artefacts and off-target activity.)
The target of experiment [23] is T2, Hexokinase HKDC1 (Homo sapiens, UniProt Q2TB90).
T2 sequence (Q2TB90 whole entry): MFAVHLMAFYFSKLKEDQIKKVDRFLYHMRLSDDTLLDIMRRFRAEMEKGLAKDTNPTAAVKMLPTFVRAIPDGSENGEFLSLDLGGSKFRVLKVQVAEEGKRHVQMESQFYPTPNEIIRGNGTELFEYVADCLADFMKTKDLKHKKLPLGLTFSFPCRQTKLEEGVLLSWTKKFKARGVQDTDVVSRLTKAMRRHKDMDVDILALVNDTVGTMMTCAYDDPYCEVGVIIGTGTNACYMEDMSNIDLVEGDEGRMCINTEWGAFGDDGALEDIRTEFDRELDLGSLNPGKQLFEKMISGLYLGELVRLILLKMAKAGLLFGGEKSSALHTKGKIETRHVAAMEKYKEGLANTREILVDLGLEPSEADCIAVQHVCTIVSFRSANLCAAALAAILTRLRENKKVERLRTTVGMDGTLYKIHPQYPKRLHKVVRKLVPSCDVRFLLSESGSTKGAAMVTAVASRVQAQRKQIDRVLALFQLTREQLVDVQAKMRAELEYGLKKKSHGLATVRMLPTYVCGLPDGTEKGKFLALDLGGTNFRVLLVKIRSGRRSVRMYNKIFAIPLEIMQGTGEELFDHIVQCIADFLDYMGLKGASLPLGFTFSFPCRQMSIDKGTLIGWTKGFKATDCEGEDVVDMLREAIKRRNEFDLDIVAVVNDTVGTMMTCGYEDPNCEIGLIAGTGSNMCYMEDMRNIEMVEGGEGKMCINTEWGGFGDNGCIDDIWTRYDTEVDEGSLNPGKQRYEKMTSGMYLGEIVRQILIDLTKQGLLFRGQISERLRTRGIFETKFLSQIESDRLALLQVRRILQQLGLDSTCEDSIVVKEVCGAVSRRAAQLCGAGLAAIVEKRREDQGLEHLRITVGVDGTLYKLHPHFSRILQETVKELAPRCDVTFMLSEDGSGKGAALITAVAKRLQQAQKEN
Put plainly: HKDC1 hexokinase activators, dose response, biochemical, W721R variant (AID 504730). The format is functional.

Experiment [24] has as its target Nonstructural protein 1 (Influenza A virus, UniProt Q194T2). The format is functional, Influenza A virus (A/California/07/2009(H1N1)).
The target in experiment [25] is Hexokinase-1 (Homo sapiens, UniProt P19367). Kind of experiment: hexokinase 1 activators, dose response, selectivity assay for HKDC1 activator project, biochemical (AID 504762). The format is functional.
Experiment [26] has as its target Heat shock protein HSP 90-alpha (Homo sapiens, UniProt P07900). It counts as functional, organism-based.
For experiment [27], the system named is BJ. Put plainly: cytotoxicity toward Ras-transformed BJeLR fibroblasts, dose response, cell-based, alamar blue fluorescence, cherrypicked samples (AID 2631).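 Also: confirmatory dose-response assay in RAS-dependent BJ fibroblasts engineered with TERT, LT and ST, with cytotoxicity read by fluorescence.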 The format is functional. Particulars: Homo sapiens.
Experiment [28] deals with INS1. Kind of experiment: beta cell apoptosis inhibitors, cytokine rescue, dose response, luminescence, retest (AID 449756).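 Also: cell death triggered by IL-1 beta plus TNF-alpha plus IFN-gamma mixture; protective hits raise ATP signal compared with cytokine alone wells.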 The format is functional, cell-based. Particulars: Rattus norvegicus.
The nature of experiment [29]: HepG2 cell cytotoxicity, dose response, cytotoxicity control, ATP luminescence, cherry-pick, activator set 2 (AID 1053143). The format is functional, cell-based.
A short description of experiment [30]: human group III sPLA2 inhibitors, dose response, biochemical, QFRET, IC50 (AID 743457).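 Also: green fluorescence rise as the enzyme cleaves BODIPY PC-A2 in liposomes; potency for inhibition of the enzyme.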

Chain of Protein Wnt-3a (P27467 whole entry): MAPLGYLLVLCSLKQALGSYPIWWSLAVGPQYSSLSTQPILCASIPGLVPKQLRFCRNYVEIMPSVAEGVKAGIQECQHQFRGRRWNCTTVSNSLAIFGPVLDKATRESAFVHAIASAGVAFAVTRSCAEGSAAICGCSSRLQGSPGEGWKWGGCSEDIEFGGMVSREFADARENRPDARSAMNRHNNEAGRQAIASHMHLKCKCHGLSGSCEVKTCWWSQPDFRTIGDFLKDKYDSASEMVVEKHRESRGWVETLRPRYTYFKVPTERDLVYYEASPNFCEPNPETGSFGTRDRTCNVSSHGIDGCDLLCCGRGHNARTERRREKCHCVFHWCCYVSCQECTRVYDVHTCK
Chain of Paired box protein Pax-8 (Q06710 whole entry): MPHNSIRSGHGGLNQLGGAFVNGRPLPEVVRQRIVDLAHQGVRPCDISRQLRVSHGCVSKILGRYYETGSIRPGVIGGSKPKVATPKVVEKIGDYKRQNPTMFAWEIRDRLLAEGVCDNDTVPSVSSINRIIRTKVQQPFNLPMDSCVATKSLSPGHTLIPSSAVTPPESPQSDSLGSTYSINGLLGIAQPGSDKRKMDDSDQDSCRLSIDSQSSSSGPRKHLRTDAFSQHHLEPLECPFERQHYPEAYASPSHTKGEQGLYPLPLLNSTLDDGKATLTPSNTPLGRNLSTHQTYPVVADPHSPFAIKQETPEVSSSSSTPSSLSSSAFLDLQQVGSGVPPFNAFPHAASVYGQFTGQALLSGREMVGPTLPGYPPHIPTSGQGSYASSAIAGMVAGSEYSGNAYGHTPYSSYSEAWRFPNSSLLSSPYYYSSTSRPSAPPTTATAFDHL
Chain of Nonstructural protein 1 (Q194T2 whole entry): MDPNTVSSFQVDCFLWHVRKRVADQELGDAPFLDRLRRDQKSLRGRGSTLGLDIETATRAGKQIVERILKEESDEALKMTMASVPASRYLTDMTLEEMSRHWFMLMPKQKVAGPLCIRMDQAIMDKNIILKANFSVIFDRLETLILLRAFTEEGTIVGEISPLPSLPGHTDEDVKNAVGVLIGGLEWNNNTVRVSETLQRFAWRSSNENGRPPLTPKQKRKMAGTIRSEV
Chain of Hexokinase-1 (P19367 whole entry): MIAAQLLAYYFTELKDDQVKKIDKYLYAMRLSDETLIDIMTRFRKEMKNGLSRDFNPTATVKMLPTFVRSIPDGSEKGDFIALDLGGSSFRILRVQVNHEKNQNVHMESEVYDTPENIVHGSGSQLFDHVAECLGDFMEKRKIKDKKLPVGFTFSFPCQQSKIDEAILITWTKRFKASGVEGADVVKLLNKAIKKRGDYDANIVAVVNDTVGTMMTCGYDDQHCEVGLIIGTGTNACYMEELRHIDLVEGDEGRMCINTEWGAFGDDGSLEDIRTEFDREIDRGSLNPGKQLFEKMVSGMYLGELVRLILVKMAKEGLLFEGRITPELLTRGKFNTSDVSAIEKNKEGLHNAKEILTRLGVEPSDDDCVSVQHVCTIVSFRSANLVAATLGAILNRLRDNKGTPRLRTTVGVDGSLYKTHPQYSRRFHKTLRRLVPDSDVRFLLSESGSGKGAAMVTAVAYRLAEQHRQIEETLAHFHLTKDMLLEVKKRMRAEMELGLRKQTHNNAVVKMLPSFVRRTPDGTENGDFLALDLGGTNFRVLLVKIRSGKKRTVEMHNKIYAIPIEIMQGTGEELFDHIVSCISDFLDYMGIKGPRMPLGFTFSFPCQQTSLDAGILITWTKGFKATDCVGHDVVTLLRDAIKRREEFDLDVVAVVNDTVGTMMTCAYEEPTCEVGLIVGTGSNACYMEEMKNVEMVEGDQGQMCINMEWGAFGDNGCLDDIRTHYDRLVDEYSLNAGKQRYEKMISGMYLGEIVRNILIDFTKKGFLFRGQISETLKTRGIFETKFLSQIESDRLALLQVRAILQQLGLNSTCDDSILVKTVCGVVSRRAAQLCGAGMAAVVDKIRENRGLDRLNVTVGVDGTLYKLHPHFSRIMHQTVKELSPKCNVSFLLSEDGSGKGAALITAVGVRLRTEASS

In the case of `CCN(c1ccccc1)S(=O)(=O)c1ccc(OC)c(NC(=O)C2CCC2)c1`, the AC50 in experiment [1] was 35.7 µM (active).

Turning to `C[C@@H]1CCCCO[C@H](CN(C)Cc2ccc(C(F)(F)F)cc2)[C@@H](C)CN([C@@H](C)CO)C(=O)c2cc(NC(=O)Nc3ccc(F)cc3)ccc2O1`, the half-maximal activity concentration (AC50) was 5.36 µM (active) in experiment [2]; 51.7 µM (active) in [3]; 35.7 µM (active) in experiment [4]; 21.4 µM (active) in experiment [5]; 43.6 µM (active) in [6]; 32.1 µM (active) in [7].

Take `CC(=O)Nc1ccc(Cl)c(C(=O)Nc2ccc(N3CCN(C(=O)OC(C)(C)C)CC3)cc2)c1`: the concentration at half-maximal activity (AC50) was 6.59 nM (active) in experiment [8], > 70 µM (inactive) in [9] and 4.02 nM (active) in [10].

Turning to `FC(F)(F)Oc1ccccc1CSc1nnc(-c2ccccc2)o1`, the AC50 in experiment [11] is > 52 µM (inactive).

In the case of `COc1cccc(NC(=O)Nc2ccc3c(c2)C(=O)N(C)C[C@@H](OC)[C@@H](C)CN[C@H](C)CO3)c1`, in [12], the half-maximal activity concentration (AC50) is 1.49 µM (active).

`COc1ccccc1C(=O)Nc1cc(N2CCCCC2)ncn1`: the IC50 in [13] is > 21.8 µM (inactive).

For `CC(C)(C)c1nnc(N/N=C/c2cc(Br)ccc2O)n(N)c1=O`, the results for the half-maximal inhibitory concentration (IC50) in experiment [14], in [17] and in experiment [24] were 1.81 µM (active), 2.08 µM (active) and 16.6 µM (active), respectively. The EC50 in experiment [15] was 2.91 µM (active); in experiment [16] it was 681 nM (active); in experiment [19], 3.69 µM (inconclusive); in experiment [20], 706 nM (inconclusive); in [21], 1.01 µM (active); in experiment [22], 3.18 µM (active). Besides, the EC50 is 19.9 µM (active) in experiment [23], > 80 µM (inactive) in experiment [25] and 1.24 µM (active) in [27]. In [18], the CC50 is 5 µM (active). For the same molecule, the AC50 in experiment [26] is 5.57 µM (active); in experiment [28] it was 859 nM (active); in [29], 5.77 µM (active).

As to `O=C1C(=O)N(Cc2ccc(-c3ccccc3)cc2)c2ccc(OC(F)(F)F)cc21`, the IC50 in experiment [30] was 32 µM (inactive).
